From patent US20050004092A1, “Penem derivatives and antimicrobial agent containing the same” (DAIICHI SUNTORY PHARMA CO., LTD., priority 1995, published 2005) come the findings set out here.

Structures are written as SMILES. Converted amounts (≈) assume the structure as drawn. A value given as a limit tells only on which side of the number the result lay.

Common to all, as to test: antibacterial activity (MIC), standard in vitro dilution test
Experiment [1] relates to MRSA 31 high-resist. (IPM resist.). The experiment is classed as cell-based, Staphylococcus aureus. Conditions: Staphylococcus aureus, MRSA, test bacterium strain 10^5 cfu/ml; read-out: MIC, MRSA 31 high-resist. (IPM resist.). From the text:
(§1) With respect to certain compounds (I) of the present invention, their general antibacterial activities and their antibacterial activities (MIC) against various methicillin-resistant strains of Staphylococcus aureus (methicillin-resistant Staphylococcus aureus: MRSA) were investigated. The results will be shown next.
(§2) Of the investigations, the general antibacterial activities were investigated by a standard in vitro dilution test.
(§3) As test bacteria, Staphylococcus aureus 209P JC-1, Escherichia coli NIHJ JC-2 and MRSAs were used.

For experiment [2], the system named is MRSA 33 high-resist. (IPM resist.). The experiment is classed as cell-based, Staphylococcus aureus. Conditions: Staphylococcus aureus, MRSA, test bacterium strain 10^5 cfu/ml; read-out: MIC, MRSA 33 high-resist. (IPM resist.).
Text: as §1, §2, §3

In experiment [3] the test system is Escherichia coli NIHJ JC-2 strain. The experiment is classed as cell-based. The following applies: Escherichia coli, NIHJJC2, test bacterium strain 10^5 cfu/ml; read-out: MIC, Escherichia coli NIHJ JC-2 strain.
Text: as §1, §2, §3

Experiment [4] deals with Staphylococcus aureus 209P JC-1 strain. It counts as cell-based. Conditions: Staphylococcus aureus, 209P, test bacterium strain 10^5 cfu/ml; read-out: MIC, Staphylococcus aureus 209P JC-1 strain.
Text: as §1, §2, §3

The term MIC denotes the lowest concentration found to suppress growth. Consider `CC[C@H](O)[C@@H]1C(=O)N2C(C(=O)O)=C(S[C@H]3CCN(CC(=O)c4ccc(OC)cc4)C3)S[C@H]12` [Ex. 114, (5R,6R)-6-((S)-1-hydroxypropyl)-2-((S)-1-(2-p-methoxyphenyl-2-oxoethyl)pyrrolidin-3-yl)thiopenem-3-carboxylic acid], for which the MIC in experiment [1] amounted to 6.25 µg/mL (≈ 13.1 µM); in experiment [2], 6.25 µg/mL (≈ 13.1 µM); in experiment [3], 0.2 µg/mL (≈ 0.418 µM); in experiment [4] it was 0.2 µg/mL (≈ 0.418 µM).

`CC[C@H](O)[C@@H]1C(=O)N2C(C(=O)O)=C(SC3CCN(c4ccccc4)C3)S[C@H]12` (stereo partly drawn) [Ex. 105, (5R,6R)-6-((S)-1-hydroxypropyl)-2-(1-phenylpyrrolidin-3-yl)thiopenem-3-carboxylic acid]: the MIC is 1.56 µg/mL (≈ 3.84 µM) in experiment [1], 1.56 µg/mL (≈ 3.84 µM) in experiment [2], greater than 12.5 µg/mL in experiment [3] and 0.1 µg/mL (≈ 0.246 µM) in experiment [4].

Turning to `CC[C@H](O)[C@@H]1C(=O)N2C(C(=O)O)=C(S[C@H]3CCN(CCOc4ccccc4)C3)S[C@H]12` [Ex. 210], the MIC in experiment [1] worked out at 6.25 µg/mL (≈ 13.9 µM); in experiment [2], 6.25 µg/mL (≈ 13.9 µM); in experiment [3] it was 12.5 µg/mL (≈ 27.7 µM); in experiment [4], 0.1 µg/mL (≈ 0.222 µM).
